The values that follow come from article PMC7608467 (Acta Pharmacologica Sinica, 2020).

One experiment has as its target T1, mouse RXFP4 (mRXFP4) (Mus musculus, UniProt Q7TQP4).
T1 sequence (Q7TQP4 1-414): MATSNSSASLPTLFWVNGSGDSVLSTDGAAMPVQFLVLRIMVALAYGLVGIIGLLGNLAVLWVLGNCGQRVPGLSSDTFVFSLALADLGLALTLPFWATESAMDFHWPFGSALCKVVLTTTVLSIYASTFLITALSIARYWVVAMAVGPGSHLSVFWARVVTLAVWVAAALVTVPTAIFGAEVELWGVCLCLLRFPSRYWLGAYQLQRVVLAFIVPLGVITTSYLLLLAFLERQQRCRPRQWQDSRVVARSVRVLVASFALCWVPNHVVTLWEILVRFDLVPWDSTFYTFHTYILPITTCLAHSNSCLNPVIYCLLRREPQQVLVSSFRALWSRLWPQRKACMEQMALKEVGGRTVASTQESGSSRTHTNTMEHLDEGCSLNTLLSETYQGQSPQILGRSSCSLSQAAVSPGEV
Briefly: inhibition of forskolin-stimulated cAMP accumulation, TR-FRET. The format is cell-based. To be noted: agonist; 500 nM forskolin, 500 uM IBMX, 40 min, RT. In general terms: Cyclic AMP is a second messenger, typically raised through Gs and lowered through Gi signalling.

The target in experiment [1] is T2, human RXFP4 (hRXFP4) (Homo sapiens, UniProt Q8TDU9). The experiment is described as above. The format is cell-based. To be noted: agonist; 500 nM forskolin, 500 uM IBMX, 40 min, RT.
For experiment [2], the target named is T2, human RXFP4 (hRXFP4). In words: Eu-mINSL5 competition binding, time-resolved fluorescence, CHO-RXFP4 cells. Conditions: n = 3; one-site fit; competitive with Eu-labelled INSL5. The format is cell-based.
Experiment [3] addresses human relaxin/insulin-like family peptide receptor 4 (RXFP4) on CHO-K1 cells (human) (UniProt Q8TDU9).

human relaxin/insulin-like family peptide receptor 4 (RXFP4) on CHO-K1 cells (human), sequence (Q8TDU9 whole entry): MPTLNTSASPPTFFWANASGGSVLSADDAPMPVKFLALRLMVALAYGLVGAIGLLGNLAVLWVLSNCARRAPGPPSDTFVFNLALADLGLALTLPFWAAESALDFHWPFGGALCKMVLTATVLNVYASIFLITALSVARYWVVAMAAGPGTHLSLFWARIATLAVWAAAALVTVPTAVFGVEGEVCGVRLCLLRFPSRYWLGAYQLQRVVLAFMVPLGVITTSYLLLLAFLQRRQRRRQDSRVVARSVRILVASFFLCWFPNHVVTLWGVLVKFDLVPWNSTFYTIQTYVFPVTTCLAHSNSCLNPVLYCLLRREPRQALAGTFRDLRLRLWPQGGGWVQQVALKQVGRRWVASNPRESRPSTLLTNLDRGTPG
T2 sequence (Q8TDU9 whole entry): as above
Human INSL5 (insulin-like peptide 5) (ligand), sequence (Q9Y5Q6 23-135): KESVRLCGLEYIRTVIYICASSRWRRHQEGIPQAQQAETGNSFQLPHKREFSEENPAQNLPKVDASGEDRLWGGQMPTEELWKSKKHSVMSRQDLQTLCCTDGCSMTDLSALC

As for `O=C1CCCC2=C1[C@H](c1ccc(O)cc1)n1nc(-c3ccccc3Cl)nc1N2` [JK1], the pEC50 on mouse RXFP4 (mRXFP4) is recorded as 4.60 ± 0.07 -log M; on human RXFP4 (hRXFP4) [1], 4.76 ± 0.04 -log M. In addition, the pKi at human RXFP4 (hRXFP4) [2] is 4.48 ± 0.09 -log M.
In turn, “Human INSL5 (insulin-like peptide 5) (ligand)” showed a pEC50, inhibition of forskolin-stimulated cAMP production in hRXFP4-CHO cells in experiment [3] of 8.12.
Compound R3/I5 (ligand) showed a pEC50, inhibition of forskolin-stimulated cAMP production in hRXFP4-CHO cells in experiment [3] of 7.52.
